Assay results as given in patent US8697636B2 (priority 2007, dated 2014).
Converted amounts (≈) assume the structure as drawn.

Columns and labels:
C. perfringens = experiment: microbe, parasite or virus in culture; assay type: cell-based; settings: Clostridium perfringens, read-out: minimum inhibitory concentration
[1] = tested on: pathogenic Clostridium sp.; settings: cited from earlier work

Question: With `Cc1ncc([N+](=O)[O-])n1CCO` [metronidazole] as the molecule, how does the MIC (C. perfringens) read?
Answer: 25 µg/mL (≈ 146 µM)

Question: With ruminococcin A as the molecule, how does the “activity against pathogenic Clostridium sp.” value [1] read?
Answer: active
